From ChEMBL document CHEMBL4811242, “Mechanistic selectivity investigation and 2D-QSAR study of some new antiproliferative pyrazoles and pyrazolopyridines as potential CDK2 inhibitors” (Eur J Med Chem, 2021)

Tests used:
[1] = Cytotoxicity against human MCF10A cells assessed as reduction in cell viability by MTT assay; format: cell-based, MCF-10A
HepG2 [2] = assay: Antiproliferative activity against human HepG2 cells assessed as inhibition of cell growth after 48 hrs by MTT assay; format: functional, cell-based; conditions: HepG2, 48 h
MCF7 [3] = assay: Antiproliferative activity against human MCF7 cells assessed as inhibition of cell growth after 48 hrs by MTT assay; format: functional, cell-based; conditions: MCF7, 48 h
[4] = Cytotoxicity against human THLE2 cells assessed as reduction in cell viability by MTT assay; format: cell-based, THLE-2
CDK2/Cyclin A2 = CDK2/Cyclin A2 (Homo sapiens, UniProt P24941); assay: Inhibition of CDK2/Cyclin A2 (unknown origin) after 10 mins by ADP-Glo reagent based assay; format: protein-complex assay
[5] = Selectivity index, ratio of CC50 for human THLE2 cells to IC50 for human HepG2 cells; format: toxicity; conditions: THLE2 cells and HepG2 cells, read-out: Ratio CC50/IC50
[6] = molecular target: Cyclin-dependent kinase 1/cyclin B1 (Homo sapiens, UniProt P06493); assay: Inhibition of CDK1/cyclin B (unknown origin); format: protein-complex assay
[7] = molecular target: Cyclin-dependent kinase 7/ cyclin H (Homo sapiens, UniProt P50613); assay: Inhibition of CDK7/cyclin H (unknown origin); format: protein-complex assay
HepG2 [8] = assay: Induction of apoptosis in human HepG2 cells assessed as fold increase in caspase-3 activation at IC50 by ELISA; format: functional
HepG2 [9] = assay: Induction of apoptosis in human HepG2 cells assessed as early apoptotic cells at IC50 after 48 hrs by Annexin V-FITC/propidium iodide staining based flow cytometric analysis (reference value: 0.38 %); format: functional
HepG2 [10] = assay: Induction of cell cycle arrest in human HepG2 cells assessed as accumulation at G2/M phase at IC50 after 48 hrs by propidium iodide staining based Flow cytometric analysis (reference value: 7.34%); format: functional
HepG2 [11] = assay: Induction of cell cycle arrest in human HepG2 cells assessed as accumulation at pre-G1 phase at IC50 after 48 hrs by propidium iodide staining based Flow cytometric analysis (reference value: 1.52%); format: functional
HepG2 [12] = assay: Induction of cell cycle arrest in human HepG2 cells assessed as accumulation at G0/G1 phase at IC50 after 48 hrs by propidium iodide staining based Flow cytometric analysis (reference value: 47.29%); format: functional
[13] = molecular target: Cyclin-dependent kinase 4/cyclin D1 (Homo sapiens, UniProt P11802); assay: Inhibition of CDK4/cyclin D1 (unknown origin); format: protein-complex assay
HepG2 [14] = assay: Induction of apoptosis in human HepG2 cells assessed as total apoptotic cells at IC50 after 48 hrs by Annexin V-FITC/propidium iodide staining based flow cytometric analysis (reference value: 1.52 %); format: functional
HepG2 [15] = assay: Induction of apoptosis in human HepG2 cells assessed as caspase-3 concentration at IC50 by ELISA (reference value: 0.03822 +/- 0.0029 ng/ml); format: functional
HepG2 [16] = assay: Induction of cell cycle arrest in human HepG2 cells assessed as accumulation at S phase at IC50 after 48 hrs by propidium iodide staining based Flow cytometric analysis (reference value: 45.37%); format: functional
HepG2 [17] = assay: Induction of apoptosis in human HepG2 cells assessed as late apoptotic cells at IC50 after 48 hrs by Annexin V-FITC/propidium iodide staining based flow cytometric analysis (reference value: 0.18 %); format: functional
[18] = Selectivity index, ratio of CC50 for human MCF10A cells to IC50 for human MCF7 cells; format: toxicity; conditions: MCF10A cells and MCF7 cells, read-out: Ratio CC50/IC50
MCF7 [19] = assay: Induction of apoptosis in human MCF7 cells assessed as fold increase in caspase-9 concentration at IC50 by ELISA; format: functional
MCF7 [20] = assay: Induction of cell cycle arrest in human MCF7 cells assessed as accumulation at G2/M phase at IC50 after 48 hrs by propidium iodide staining based Flow cytometric analysis (reference value: […]%); format: functional
MCF7 [21] = assay: Induction of apoptosis in human MCF7 cells assessed as caspase-9 concentration at IC50 by ELISA (reference value: 2.018 +/- 0.14 ng/ml); format: functional
MCF7 [22] = assay: Induction of cell cycle arrest in human MCF7 cells assessed as accumulation at pre-G1 phase at IC50 after 48 hrs by propidium iodide staining based Flow cytometric analysis (reference value: 1.84%); format: functional
MCF7 [23] = assay: Induction of cell cycle arrest in human MCF7 cells assessed as accumulation at S phase at IC50 after 48 hrs by propidium iodide staining based Flow cytometric analysis (reference value: 39.15%); format: functional
MCF7 [24] = assay: Induction of apoptosis in human MCF7 cells assessed as total apoptotic cells at IC50 after 48 hrs by Annexin V-FITC/propidium iodide staining based flow cytometric analysis (reference value: 1.84 %); format: functional
MCF7 [25] = assay: Induction of cell cycle arrest in human MCF7 cells assessed as accumulation at G0/G1 phase at IC50 after 48 hrs by propidium iodide staining based Flow cytometric analysis (reference value: 55.71%); format: functional
MCF7 [26] = assay: Induction of apoptosis in human MCF7 cells assessed as early apoptotic cells at IC50 after 48 hrs by Annexin V-FITC/propidium iodide staining based flow cytometric analysis (reference value: 0.57 %); format: functional
MCF7 [27] = assay: Induction of apoptosis in human MCF7 cells assessed as late apoptotic cells at IC50 after 48 hrs by Annexin V-FITC/propidium iodide staining based flow cytometric analysis (reference value: 0.28 %); format: functional
MCF7 [28] = assay: Cytotoxicity against human MCF7 cells
HepG2 [29] = assay: Cytotoxicity against human HepG2 cells

Sequence of Cyclin-dependent kinase 1/cyclin B1 (P06493 whole entry): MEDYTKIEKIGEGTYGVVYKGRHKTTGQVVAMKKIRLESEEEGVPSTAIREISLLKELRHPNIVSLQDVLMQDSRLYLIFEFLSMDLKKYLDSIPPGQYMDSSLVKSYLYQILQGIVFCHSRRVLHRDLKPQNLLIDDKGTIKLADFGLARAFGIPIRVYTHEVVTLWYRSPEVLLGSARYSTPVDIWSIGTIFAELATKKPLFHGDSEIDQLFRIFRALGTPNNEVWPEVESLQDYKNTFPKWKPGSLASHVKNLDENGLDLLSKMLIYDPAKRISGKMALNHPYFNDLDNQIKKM
Sequence of Cyclin-dependent kinase 1/cyclin B1 (P14635 whole entry, further chain): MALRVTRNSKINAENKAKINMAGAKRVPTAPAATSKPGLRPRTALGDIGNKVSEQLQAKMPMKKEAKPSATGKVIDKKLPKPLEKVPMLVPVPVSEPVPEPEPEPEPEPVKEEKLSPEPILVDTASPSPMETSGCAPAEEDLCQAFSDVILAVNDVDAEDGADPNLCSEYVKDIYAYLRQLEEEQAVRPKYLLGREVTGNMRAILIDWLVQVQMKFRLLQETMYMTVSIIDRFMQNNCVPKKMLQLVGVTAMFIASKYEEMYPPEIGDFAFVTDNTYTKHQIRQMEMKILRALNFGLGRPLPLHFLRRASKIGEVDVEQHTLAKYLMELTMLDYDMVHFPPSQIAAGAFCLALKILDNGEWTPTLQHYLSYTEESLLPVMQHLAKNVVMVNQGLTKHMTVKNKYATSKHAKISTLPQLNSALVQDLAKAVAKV
Sequence of Cyclin-dependent kinase 7/ cyclin H (P51946 whole entry): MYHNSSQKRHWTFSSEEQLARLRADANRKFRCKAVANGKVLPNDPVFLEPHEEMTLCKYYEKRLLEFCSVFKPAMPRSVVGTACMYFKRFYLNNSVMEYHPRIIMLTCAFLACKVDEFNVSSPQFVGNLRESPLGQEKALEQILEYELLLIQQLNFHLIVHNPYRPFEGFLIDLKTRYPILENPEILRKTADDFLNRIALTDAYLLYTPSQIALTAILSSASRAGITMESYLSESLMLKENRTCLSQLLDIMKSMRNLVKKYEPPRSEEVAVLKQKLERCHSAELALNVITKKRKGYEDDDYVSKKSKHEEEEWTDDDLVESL
Sequence of Cyclin-dependent kinase 7/ cyclin H (P50613 whole entry): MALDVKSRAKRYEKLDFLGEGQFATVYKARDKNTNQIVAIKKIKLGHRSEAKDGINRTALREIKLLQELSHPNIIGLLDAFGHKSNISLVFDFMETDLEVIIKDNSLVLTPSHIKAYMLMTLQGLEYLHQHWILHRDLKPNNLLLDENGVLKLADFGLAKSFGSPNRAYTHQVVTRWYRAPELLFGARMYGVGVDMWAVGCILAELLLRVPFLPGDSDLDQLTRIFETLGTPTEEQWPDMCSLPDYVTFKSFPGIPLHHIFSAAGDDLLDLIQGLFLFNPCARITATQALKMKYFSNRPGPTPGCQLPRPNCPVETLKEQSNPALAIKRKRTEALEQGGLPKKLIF
Sequence of Cyclin-dependent kinase 4/cyclin D1 (P11802 whole entry): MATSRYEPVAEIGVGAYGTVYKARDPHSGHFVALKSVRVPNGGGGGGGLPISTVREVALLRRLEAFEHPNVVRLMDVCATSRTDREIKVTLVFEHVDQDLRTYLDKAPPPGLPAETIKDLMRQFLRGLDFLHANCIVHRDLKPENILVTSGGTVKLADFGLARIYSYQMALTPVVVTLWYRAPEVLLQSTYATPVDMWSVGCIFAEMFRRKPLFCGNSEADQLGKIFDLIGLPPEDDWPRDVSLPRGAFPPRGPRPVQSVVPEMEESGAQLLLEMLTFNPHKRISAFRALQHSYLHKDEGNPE
Sequence of Cyclin-dependent kinase 4/cyclin D1 (P24385 whole entry, further chain): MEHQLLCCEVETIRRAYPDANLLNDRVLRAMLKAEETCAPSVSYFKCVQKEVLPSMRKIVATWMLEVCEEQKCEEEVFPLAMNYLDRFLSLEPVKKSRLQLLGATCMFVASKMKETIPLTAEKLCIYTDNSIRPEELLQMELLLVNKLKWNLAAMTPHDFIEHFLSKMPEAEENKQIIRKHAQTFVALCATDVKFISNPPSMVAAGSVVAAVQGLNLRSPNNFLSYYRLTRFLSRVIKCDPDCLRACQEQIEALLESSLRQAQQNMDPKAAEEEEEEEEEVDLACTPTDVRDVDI

Row | SMILES | IC50 (HepG2 [2]) [nM] | IC50 (MCF7 [3]) [nM] | CC50 [4] [nM] | IC50 (CDK2/Cyclin A2) [nM] | selectivity ratio [5] | also measured
1 | COc1cccc2c1C(=O)c1c(O)c3c(c(O)c1C2=O)C[C@@](O)(C(=O)CO)C[C@@H]3O[C@H]1C[C@H](N)[C@H](O)[C@H](C)O1 [DOXORUBICIN] | 7300 | 1880 | 12700 | – | – | CC50 [1]: 13900 nM
2 | O=C(C=CNc1cc(-c2ccccc2)nn1-c1ccccc1)c1ccccc1 | 2660 | 9650 | 53400 | 318 | 20.1 | –
3 | COc1ccc(-c2nc3c(c(-c4ccccc4)nn3-c3ccccc3)c(-c3ccc(N4CCN(C)CC4)cc3)c2C#N)cc1 | 1330 | 2650 | 37500 | 66.5 | 28.2 | IC50 [6]: 209 nM; Ki [6]: 127 nM; IC50 [7]: 225 nM; Ki [7]: 144 nM; fold change (FC) (HepG2 [8]): 10; Activity (HepG2 [9]): 6.07%; Ki (CDK2/Cyclin A2): 40 nM; Activity (HepG2 [10]): 3.62%; Activity (HepG2 [11]): 22.15%; Activity (HepG2 [12]): 48.02%; IC50 [13]: 104000 nM; Ki [13]: 56900 nM; Activity (HepG2 [14]): 22.2%; Activity (HepG2 [15]): 0.3714 ng/mL; Activity (HepG2 [16]): 48.36%; Activity (HepG2 [17]): 11.17%
4 | O=C(C=CNc1cc(-c2ccccc2)nn1-c1ccccc1)c1cccs1 | 2420 | 15400 | 19900 | 201 | 8.22 | –
5 | Brc1ccc(-c2ccnc3c2c(-c2ccccc2)nn3-c2ccccc2)cc1 | 49900 | 13300 | – | 80.7 | – | –
6 | N#Cc1c(-c2ccccc2)nc2c(c(-c3ccccc3)nn2-c2ccccc2)c1-c1ccc(N2CCCCC2)cc1 | 30900 | 27000 | – | 329 | – | –
7 | Fc1ccc(-c2ccnc3c2c(-c2ccccc2)nn3-c2ccccc2)cc1 | 1570 | 1570 | 19700 | 41.5 | 12.5 | IC50 [6]: 1350 nM; Ki [6]: 823 nM; IC50 [7]: 1990 nM; Ki [7]: 1270 nM; fold change (FC) (HepG2 [8]): 10; CC50 [1]: 28300 nM; Activity (HepG2 [9]): 6.15%; Ki (CDK2/Cyclin A2): 25 nM; Activity (HepG2 [10]): 37.64%; Activity (HepG2 [11]): 32.19%; Activity (HepG2 [12]): 38.47%; IC50 [13]: 6920 nM; Ki [13]: 3780 nM; Activity (HepG2 [14]): 32.19%; Activity (HepG2 [15]): 0.3872 ng/mL; Activity (HepG2 [16]): 23.89%; selectivity ratio [18]: 18; Activity (HepG2 [17]): 17.43%
8 | COc1ccc(C(=O)C=CNc2cc(-c3ccccc3)nn2-c2ccccc2)cc1 | 2030 | 1290 | 35200 | 42 | 17.3 | fold change (FC) (MCF7 [19]): 9; Activity (MCF7 [20]): 3.47%; IC50 [6]: 955 nM; Ki [6]: 581 nM; Activity (MCF7 [21]): 18.96 ng/mL; Activity (MCF7 [22]): 36.51%; IC50 [7]: 326 nM; Ki [7]: 208 nM; CC50 [1]: 16900 nM; Activity (MCF7 [23]): 59.24%; Ki (CDK2/Cyclin A2): 25 nM; Activity (MCF7 [24]): 36.51%; Activity (MCF7 [25]): 37.29%; IC50 [13]: 16700 nM; Ki [13]: 9120 nM; Activity (MCF7 [26]): 2.69%; selectivity ratio [18]: 13.1; Activity (MCF7 [27]): 20.64%
9 | c1ccc(-c2ccnc3c2c(-c2ccccc2)nn3-c2ccccc2)cc1 | 3210 | 28200 | 34200 | 348 | 10.7 | –
10 | Cc1ccc(C(=O)C=CNc2cc(-c3ccccc3)nn2-c2ccccc2)cc1 | 7320 | 30200 | – | 63.2 | – | –
11 | COc1ccc(-c2nc3c(c(-c4ccccc4)nn3-c3ccccc3)c(-c3ccc(N4CCOCC4)cc3)c2C#N)cc1 | 8130 | 930 | – | 221 | – | fold change (FC) (MCF7 [19]): 9; Activity (MCF7 [20]): 21.2%; IC50 [6]: 718 nM; Ki [6]: 437 nM; Activity (MCF7 [21]): 20.32 ng/mL; Activity (MCF7 [22]): 24.36%; IC50 [7]: 318 nM; Ki [7]: 203 nM; CC50 [1]: 55700 nM; Activity (MCF7 [23]): 34.42%; Ki (CDK2/Cyclin A2): 131 nM; Activity (MCF7 [24]): 24.4%; Activity (MCF7 [25]): 44.38%; IC50 [13]: 21200 nM; Ki [13]: 11600 nM; Activity (MCF7 [26]): 9.36%; selectivity ratio [18]: 59.9; Activity (MCF7 [27]): 9.86%
12 | O=C(C=CNc1cc(-c2ccccc2)nn1-c1ccccc1)c1ccc(F)cc1 | 59900 | 9180 | – | 133 | – | –
13 | Clc1ccc(-c2ccnc3c2c(-c2ccccc2)nn3-c2ccccc2)cc1 | 61100 | 61100 | – | 386 | – | –
14 | CN1CCN(c2ccc(-c3c(C#N)c(-c4ccccc4)nc4c3c(-c3ccccc3)nn4-c3ccccc3)cc2)CC1 | 3140 | 14300 | 15100 | 161 | 4.8 | –
15 | COc1ccc(-c2nc3c(c(-c4ccccc4)nn3-c3ccccc3)c(-c3ccc(N4CCCCC4)cc3)c2C#N)cc1 | 12500 | 2760 | – | 85.1 | – | –
16 | N#Cc1c(-c2ccccc2)nc2c(c(-c3ccccc3)nn2-c2ccccc2)c1-c1ccc(N2CCOCC2)cc1 | 10500 | 3340 | – | 96 | – | –
17 | Cc1ccc(-c2ccnc3c2c(-c2ccccc2)nn3-c2ccccc2)cc1 | 10700 | 5590 | – | 81.9 | – | –
18 | COc1ccc(-c2ccnc3c2c(-c2ccccc2)nn3-c2ccccc2)cc1 | 6590 | 28700 | – | 270 | – | –
19 | c1ccc(-c2nn(-c3ccccc3)c3nccc(-c4cccs4)c23)cc1 | 39300 | 39300 | – | 56.8 | – | –
20 | CC(C)c1cnn2c(NCc3ccccc3)cc(N[C@@H](CO)[C@H](O)CO)nc12 | – | – | – | – | – | IC50 (MCF7 [28]): 300 nM; IC50 (HepG2 [29]): 1000 nM
21 | O=C(C=CNc1cc(-c2ccccc2)nn1-c1ccccc1)c1ccc(Cl)cc1 | 41200 | 8070 | – | 122 | – | –
22 | N#Cc1c(-c2ccc(Cl)cc2)nc2c(c(-c3ccccc3)nn2-c2ccccc2)c1-c1ccc(N2CCOCC2)cc1 | 21500 | 3650 | – | 644 | – | –
23 | N#Cc1c(-c2ccc(Cl)cc2)nc2c(c(-c3ccccc3)nn2-c2ccccc2)c1-c1ccc(N2CCCCC2)cc1 | 3210 | 10600 | 12500 | 195 | 3.89 | –
24 | CN1CCN(c2ccc(-c3c(C#N)c(-c4ccc(Cl)cc4)nc4c3c(-c3ccccc3)nn4-c3ccccc3)cc2)CC1 | 14600 | 2710 | – | 129 | – | –
25 | O=C(C=CNc1cc(-c2ccccc2)nn1-c1ccccc1)c1ccc(Br)cc1 | 8810 | 21700 | – | 517 | – | –
